Source: patent US12037305B2, “Calcium salt polymorphs as anti-inflammatory, immunomodulatory and anti-proliferative agents” (Immunic AG, priority 2018, dated 2024)
Counter-ions that a name gives are not always drawn.

Assays:
[1] = Dynamic vapor sorption (DVS); assay type: physicochemical
From the text: DVS (SMS): Surface Measurement Systems Ltd. DVS-1 water vapour sorption analyzer. The sample is placed on a platinum sample pan and allowed to equilibrate at a given relative humidity (r.h.), usually 50% r.h. Then, a pre-defined humidity program was started with a scanning rate of 5% r.h. change per hour. First step: from 50% r.h. to 0% r.h. (in case of a possibly hydrate as starting material 50 to 95% r.h.), second step: from 0% to 95% r.h. (in case of a possibly hydrate as starting material 95 to 0% r.h.)

[2] = test system: Human T-Cells; assay: Proliferation assay of human T-cells (PHA-stimulated PBMC, BrdU ELISA); assay type: cell-based; details: T-cell, PHA 20 μg/ml, 48 hours
Protocol: Human peripheral blood mononuclear cells (PBMC) were obtained from healthy volunteers and transferred to RPMI1640 cell culture medium containing 10% dialyzed fetal calf serum. 80.000 cells per well were pipetted into a 96-well plate and phytohemagglutinin (PHA) was added in phosphate buffered saline to a final concentration of 20 μg/ml to stimulate T-cell proliferation. Vidofludimus was added in dimethyl sulfoxide (DMSO, final concentration: 0.1 Vol %) to final concentrations ranging from 20 nM to 50 μM. After incubation for 48 hours, cell proliferation was quantified using the “cell proliferation ELISA BrdU” (Roche) according to the manufacturer's instructions. Half maximal inhibition (IC50) was calculated using a 4-parameter sigmoidal curve fit.

water uptake ([1]; at 95% r.h. (not reversible)) | water uptake ([1]; at about 85% r.h., after desolvation) | SMILES | IC50 [2]
0.4% | 0.3% | COc1cccc(-c2ccc(NC(=O)C3=C(C(=O)O)CCC3)c(F)c2)c1 [Calcium salt] | 
 |  | COc1cccc(-c2ccc(NC(=O)C3=C(C(=O)O)CCC3)c(F)c2)c1 [Vidofludimus, 2-(3-Fluoro-3′-methoxy-biphenyl-4-ylcarbamoyl)-cyclopent-1-enecarboxylic acid] | 4.1 µM
